One experiment relates to MCF7. The experiment is described as follows: Antiproliferative activity against human MCF7 cells after 72 hrs by MTT assay. Format: functional, cell-based. The settings on record: MCF7, 72 h.
In a further experiment the test system is PC-3. The experiment is described as follows: Antiproliferative activity against human PC3 cells after 72 hrs by MTT assay. The settings on record: PC-3, 72 h. Format: functional, cell-based.
Experiment [1] is described as follows: Selectivity index, ratio of IC50 for human L02 cells to IC50 for human PC3 cells. Format: functional.
The target in experiment [2] is T1, Vitamin D3 receptor (Homo sapiens) (UniProt P11473).
T1 sequence (whole entry): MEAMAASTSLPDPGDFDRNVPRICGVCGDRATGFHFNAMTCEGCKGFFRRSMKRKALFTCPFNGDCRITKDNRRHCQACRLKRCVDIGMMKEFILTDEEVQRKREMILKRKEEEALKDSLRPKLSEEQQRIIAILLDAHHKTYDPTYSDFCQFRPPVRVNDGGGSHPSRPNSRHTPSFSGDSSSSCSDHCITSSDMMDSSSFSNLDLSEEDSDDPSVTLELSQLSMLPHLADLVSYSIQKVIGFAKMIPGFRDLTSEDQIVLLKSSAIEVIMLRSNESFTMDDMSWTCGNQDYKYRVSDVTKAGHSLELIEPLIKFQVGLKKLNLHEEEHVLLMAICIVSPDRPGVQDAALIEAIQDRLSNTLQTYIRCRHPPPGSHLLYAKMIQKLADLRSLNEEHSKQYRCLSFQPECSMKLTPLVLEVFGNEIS
The experiment is described as follows: Inhibition of Fluormone VDR Red binding to human VDR LBD expressed in insect cells assessed as binding ability at 1 uM by fluorescence polarization assay relative to 1,25(OH)2D3. Set-up: scale not given: the % may be the effect or the level left.

The test system of a further experiment is L02. The experiment is described as follows: Antiproliferative activity against human L02 cells after 72 hrs by MTT assay. The note with it: L02, 72 h. Format: cell-based. Background: Tetrazolium dyes change colour on reduction, which living cells bring about.
Experiment [3] can be described thus: Selectivity index, ratio of IC50 for human L02 cells to IC50 for human MCF7 cells. Format: functional.
In another experiment the target is T2, Vitamin D3 receptor (Homo sapiens, UniProt P11473).
T2 sequence (P11473 whole entry): T1 sequence (whole entry)
The experiment is described as follows: Inhibition of Fluormone VDR Red binding to human VDR LBD expressed in insect cells assessed as binding ability by fluorescence polarization assay. (In general: Fluorescence polarisation rises when a labelled molecule tumbles more slowly, as on binding a larger partner.)

One may read the IC50 as the concentration needed to halve the response being measured. Regarding `CCCCC(=O)c1cc(C(CC)(CC)c2ccc(C#CC(O)(CC)CC)c(C)c2)cn1CC`, the half-maximal inhibitory concentration (IC50) in the experiment with MCF7 was over 50 µM; with PC-3, 48.1 µM.
Consider `CCn1cc(C(CC)(CC)c2ccc(C#CC(O)(CC)CC)c(C)c2)cc1C(=O)N[C@@H](C)CO`, for which the figures for the “Ratio IC50” value in experiment [1] and in experiment [3] were 5.9 and 18.5, respectively. Moreover, the IC50 was 1.91 µM with MCF7, 35.4 µM in the experiment on L02 and 6.05 µM in the experiment with PC-3. In experiment [2], the Activity came out at 19.8%.
Take `CCn1c(C(=O)N[C@H](C(=O)O)C(C)C)ccc1C(CC)(CC)c1ccc(C#CC(O)(CC)CC)c(C)c1`: the half-inhibitory concentration (IC50) was 13 µM with MCF7 and 5 µM in the experiment with PC-3. Moreover, in experiment [2], the Activity was 5.9%.
Regarding `CCN(CC)CCNC(=O)c1ccc(C(CC)(CC)c2ccc(C#CC(O)(CC)CC)c(C)c2)n1CC`, the results for the “Ratio IC50” value in experiment [1] and in experiment [3] were 3.5 and 5.4, respectively. Further, the concentration for half-maximal inhibition (IC50) in the experiment on MCF7 worked out at 3.77 µM; at Vitamin D3 receptor, 0.0732 µM; in the experiment on L02, 20.5 µM; in the experiment with PC-3, 5.85 µM. Further, the Activity in experiment [2] amounted to 62.2%.
Regarding `CCN(CC)CCNC(=O)c1cc(C(CC)(CC)c2ccc(C#CC(O)(CC)CC)c(C)c2)cn1CC`, the results for the “Ratio IC50” value in experiment [1] and in experiment [3] were 7.9 and 23.4, respectively. Moreover, the IC50 in the experiment on MCF7 stood at 1.8 µM; at Vitamin D3 receptor it was 0.0565 µM; in the experiment on L02 it was 42.1 µM; in the experiment on PC-3 it was 5.35 µM. Moreover, the Activity in experiment [2] came out at 50.3%.
Take `CCn1c(C(=O)On2nnc3ccccc32)ccc1C(CC)(CC)c1ccc(C#CC(O)(CC)CC)c(C)c1`: the IC50 in the experiment on MCF7 and in the experiment with PC-3 was over 50 µM throughout.
Consider `CCn1cc(C(CC)(CC)c2ccc(C#CC(O)(CC)CC)c(C)c2)cc1C(=O)NCC(=O)O`, for which the IC50 in the experiment on MCF7 was 17.5 µM; in the experiment with PC-3 it was 6.3 µM. The Activity in experiment [2] was 14.6%.
With `CCn1c(C(=O)NCCC(=O)O)ccc1C(CC)(CC)c1ccc(C#CC(O)(CC)CC)c(C)c1`, the values for the IC50 with MCF7 and in the experiment on PC-3 were over 50 µM and 5.13 µM, respectively. In experiment [2], the Activity was determined as 13.6%.
Turning to `CCn1c(C(=O)NCc2ccc(OC)cc2)ccc1C(CC)(CC)c1ccc(C#CC(O)(CC)CC)c(C)c1`, the half-maximal inhibitory concentration (IC50) in the experiment on MCF7 and in the experiment on PC-3 was over 50 µM each time. Also, in experiment [2], the Activity stood at 4%.
For the molecule `CCn1c(C(=O)NCCC(=O)OC)ccc1C(CC)(CC)c1ccc(C#CC(O)(CC)CC)c(C)c1`, the IC50 is over 50 µM in the experiment on MCF7 and 36.3 µM with PC-3.
Consider `CCn1c(C(=O)NCCCO)ccc1C(CC)(CC)c1ccc(C#CC(O)(CC)CC)c(C)c1`, for which the IC50 with MCF7 is 5.95 µM; on Vitamin D3 receptor, 0.123 µM; in the experiment on PC-3, over 50 µM. The Activity in experiment [2] came to 59.7%.
`CCn1cc(C(CC)(CC)c2ccc(C#CC(O)(CC)CC)c(C)c2)cc1C(=O)NCCN(C)C`: the concentration for half-maximal inhibition (IC50) was found to be 13.4 µM in the experiment with MCF7, 0.0513 µM at Vitamin D3 receptor and 10.1 µM in the experiment with PC-3. Besides, the Activity in experiment [2] worked out at 55.3%.
For `CCN(CC)CCCNC(=O)c1ccc(C(CC)(CC)c2ccc(C#CC(O)(CC)CC)c(C)c2)n1CC`, the results for the IC50 in the experiment with MCF7 and in the experiment with PC-3 were 17.8 µM and 8.5 µM, respectively. For the same molecule, in experiment [2], the Activity worked out at 18.8%.
`CCn1cc(C(CC)(CC)c2ccc(C#CC(O)(CC)CC)c(C)c2)cc1C(=O)NCCCN(C)C`: the IC50 in the experiment on MCF7 is 20.2 µM; with PC-3, 15.1 µM. Moreover, the Activity in experiment [2] worked out at 31.6%.
In the case of `CCn1cc(C(CC)(CC)c2ccc(C#CC(O)(CC)CC)c(C)c2)cc1C(=O)N[C@@H](C(=O)O)C(C)C`, the concentration for half-maximal inhibition (IC50) in the experiment with MCF7 came to 18 µM; with PC-3 it was 10.3 µM. Also, the Activity in experiment [2] amounted to 5.9%.
For the molecule `CCCCC(=O)c1ccc(C(CC)(CC)c2ccc(C#CC(O)(CC)CC)c(C)c2)n1CC`, the IC50 with MCF7 and in the experiment on PC-3 was over 50 µM each time.
As to `CCn1cc(C(CC)(CC)c2ccc(C#CC(O)(CC)CC)c(C)c2)cc1C(=O)NCC(=O)OC`, the values for the IC50 in the experiment on MCF7 and with PC-3 were 26.5 µM and 17.4 µM, respectively.
As for `C#CCCOC(=O)c1ccc(C(CC)(CC)c2ccc(C#CC(O)(CC)CC)c(C)c2)n1CC`, the IC50 in the experiment on MCF7 and with PC-3 was over 50 µM each time.
Consider `CCn1cc(C(CC)(CC)c2ccc(C#CC(O)(CC)CC)c(C)c2)cc1C(=O)OCCO`, for which the IC50 with MCF7 came to 1.88 µM; in the experiment with PC-3, 11.4 µM. Besides, in experiment [2], the Activity is 29.7%.
Regarding `CCn1c(C(=O)NCC(=O)O)ccc1C(CC)(CC)c1ccc(C#CC(O)(CC)CC)c(C)c1`, the concentration for half-maximal inhibition (IC50) in the experiment with MCF7 turned out to be 5.14 µM; at Vitamin D3 receptor, 0.0857 µM; in the experiment with PC-3, 2.25 µM. Besides, the Activity in experiment [2] came out at 55.4%.
In the case of `CCn1cc(C(CC)(CC)c2ccc(C#CC(O)(CC)CC)c(C)c2)cc1C(=O)NCCC(=O)O`, the IC50 in the experiment on MCF7 is 30.6 µM; with PC-3 it was over 50 µM. The Activity in experiment [2] was determined as 4.3%.
Consider `CCn1cc(C(CC)(CC)c2ccc(C#CC(O)(CC)CC)c(C)c2)cc1C(=O)N[C@H](C(=O)O)C(C)C`, for which the IC50 in the experiment on MCF7 turned out to be 12.6 µM; with PC-3, 3.75 µM. Also, the Activity in experiment [2] worked out at 20%.
`CCN(CC)CCNC(=O)c1ccc(C(CC)(CC)c2ccc(OCC(O)C(C)(C)C)c(C)c2)n1CC` (stereo unspecified): the “Ratio IC50” value in experiment [1] is recorded as 7.6; in experiment [3], 15.5. Moreover, the half-inhibitory concentration (IC50) was determined as 1.37 µM with MCF7, 0.0768 µM at Vitamin D3 receptor, 21.2 µM with L02 and 2.8 µM with PC-3. In experiment [2], the Activity is 25.5%.

Source of the values: ChEMBL document CHEMBL3997830, “Design, synthesis and biological evaluation of nonsecosteroidal vitamin D3 receptor ligands as anti-tumor agents” (Bioorg Med Chem Lett, 2017).
